From patent US5124083A, “3-substituted and 3,3-disubstituted 4-oxoretinoic acids and their esters” (Southern Research Institute, priority 1990, dated 1992)
Like-named read-outs stand apart in the source and are kept apart here.

Tests used:
[1] = system: pre-neoplastic and malignant epithelial lesions; conditions: literature; cited from earlier work
certain neoplastic cells = conditions: literature; cited from earlier work
[2] = system: F9 Embryonal Carcinoma Cells; test: Induction of differentiation of F9 embryonal carcinoma cells (plasminogen activator release); type: cell-based; conditions: Mus musculus, 96 h; molar concentration causing 50% induction of differentiation, by release of plasminogen activator; 4 days; read-out: Differentiation of F9 Embryonal Carcinoma Cells ED50
Method: Induction of differentiation of cancer cells is a potential mode of cancer chemoprevention. […] Elevated release of plasminogen activator by F9 cells in the presence of retinoids is a marker for differentiation. Induction of differentiation of F9 cells by several of the retinoids of this invention was evaluated, and the results are summarized in Table I (Example 24) as values of ED50. All of the tested 4-oxoretionoic acid analogues induce differentiation at low concentrations (ED50 =[…] -10^-10 molar) and, therefore, are very effective inducers of differentiation of mouse F9 embryonal carcinoma cells. […] Under the conditions of this assay, ester derivatives might be hydrolyzed partially to the carboxylic acids.
Assay for Induction of Differentiation of Cancer Cells to Normal Cells
Evaluation of the differentiation potential of 4-oxoretinoids was carried out with an embryonal carcinoma cell line, F9. Elevation of plasminogen activator release by F9 cells in the presence of retinoids is a marker for inducing differentiation into parietal endoderm (Strickland and Mahdavi, loc. cit.; Strickland and Sawey, loc. cit.). F9 cells were grown at a density of 1×10^5 cells/mL in the presence or absence of […], 10^-8, 10^-9, 10^-10, and 10^-11 or molar retinoids for 4 days. Aliquots (20 μL) of the harvest fluid were mixed with 0.13 μM plasminogen, 0.3 mM H-D-Val-Leu-Lys-p-nitroaniline (a synthetic substrate of plasmin), 0.1% Tween 80, and 25 μg of fibrinogen fragments in a final volume of 0.2 mL of Tris-HCl, pH 7.5. After incubation for 4 hours at 25° C., the generation of p-nitroaniline was measured by absorbance at 405 nm. The average absorbencies from duplicate experiments were plotted (semilog plots) versus concentration (molarity). The ED50 values were determined by finding the midpoint between the maximal and minimal absorbance values.
Induction of Differentiation of Cancer Cells
^a ED50 is the molar concentration of the retinoid that causes
50% induction of differentiation of the carcinoma cells as measured by th
release of plasminogen activator.

[3] = system: tracheas obtained from vitamin A-deficient hamsters; test: Hamster trachea organ culture assay (reversal of squamous metaplasia and keratinization); type: cell-based; conditions: for EC50: Mesocricetus auratus, reversal of keratinization, vitamin A-deficient hamster trachea in culture, read-out: ED50, hamster trachea organ culture assay; for Activity in hamster-trachea assay compared with the retinamides of Table II: compared with retinamides in lower part of Table II
Method: Some of these 4-oxoretinoic acid analogues were evaluated in the hamster-trachea organ-culture assay described in Clamon et al., Nature, Vol. 250, pages 64-66, 1974; Sporn et al., Nature, Vol. 263, pages 110-113, 1976; and Newton et al., Cancer Res., Vol. 40, pages 3413-3425, 1980. This bioassay is specific for retinoids and assesses the capacity of retinoids to reverse keratinization in vitamin A-deficient hamster trachea in culture. Therefore, it is a measure of the capacity of a retinoid to control differentiation of epithelial cells, and "it is believed to have significant predictive value for the potential use of a new retinoid for prevention of epithelial cancer" (Newton et al., Cancer Res., Vol. 40, pages 3413-3425, 1980). (See Example 25). Also, data obtained by Newton et al., (Cancer Res., Vol. 40, pages 3413-3425, 1980) in assays of six all-trans or 13-cis retinamides are included in Table II for comparison.
Hamster Trachea Organ Culture Assay
4-Oxoretinoids were evaluated for their capacity to reverse squamous metaplasia and keratinization in organ cultures of tracheas obtained from vitamin A-deficient hamsters. The methods and procedures were those described by Sporn and co-workers (Clamon et al. and Newton et al., loc. cit.).

ornithine decarboxylase = test: Ornithine decarboxylase assay (reduction of TPA-induced ODC activity in mouse skin); type: in vivo; conditions: for Ornithine Decarboxylase Activity, Average % of Control Group: TPA-induced ODC, mouse skin, nanomoles of carbon dioxide per milligram of protein per half hour; for ODC activity as % of the ODC activity in the control mice, summary range: TPA-induced, summary of Table III in text
Description: A bioassay in vivo for activity in the prevention of carcinogen-induced cancer is based on the reduction by a retinoid of the amount of ornithine decarboxylase (ODC) induced in mouse skin by the tumor promoter 12-O-tetradecanoylphorbol 13-acetate (TPA). Verma et al. (Cancer Research, Vol. 38, pages 793-801, 1978), reported that "application of the potent tumor-promoting agent 12-O-tetradecanoylphorbol 13-acetate (TPA) to mouse skin leads to a rapid and transient induction of epidermal ornithine decarboxylase activity". They state, further, that "inhibition of this enzyme activity by retinoids may be a simple and rapid in vivo test for assessing the potential prophylactic activity of new synthetic retinoids". All of the tested 4-oxoretinoid analogues reduced TPA-induced ODC activity. The compounds of Examples 2-4, 8, 11, 17, 18, and 20-23 reduced ODC activity to 22-47% of the ODC activity in the control mice and are, therefore, very active in this assay for cancer chemopreventive activity.
Ornithine Decarboxylase Assay
Assays for the reduction by 4-oxoretinoids of ornithine decarboxylase activity induced by 12-O-tetradecanoylphorbol 13-acetate (TPA) were performed by the procedure of Verma et al., Cancer Research, Vol. 38, pages 793-801 (1978).

[4] = system: tracheas obtained from vitamin A-deficient hamsters; conditions: value taken from Newton et al.; read-out: ED50, hamster trachea organ culture assay; cited from earlier work
skin papillomas = test: Mouse antipapilloma assay (DMBA-TPA skin papillomas); type: in vivo; set-up: Average Number of Skin Papillomas/Mouse as % of No. of Papillomas/Mouse in the DMBA-TPA Control Group of Mice: concentration or dose not given beside the values; conditions: for Average Number of Skin Papillomas/Mouse as % of No. of Papillomas/Mouse in the DMBA-TPA Control Group of Mice: DMBA-initiated, TPA-promoted mouse skin; for Reduction of papilloma formation, summary range: range over the six most active retinoids; for Papilloma formation as % of papilloma formation in untreated control mice, summary range: summary of Table IV
Description: Application of the carcinogen DMBA to mouse skin followed by application of the tumor promoter TPA causes the formation of papillomas. Certain retinoids applied to the same area of mouse skin reduce or prevent papilloma formation (e.g. H. Mayer, W. Bollag, R. Hanni, and R. Ruegg, Experientia, Vol 34, pages 1105-1119, 1978; R. K. Boutwell and A. K. Verma, Pure and Applied Chemistry, Vol. 51, pages 857-866, 1979). The antipapilloma assay is a direct test of the capability of a retinoid to prevent tumor formation in vivo. It has been used to select retinoids for clinical development. The tested retinoids reduced papilloma formation to 27-83% of papilloma formation in untreated control mice. […] The number of papillomas in mice treated with either of these six retinoids was 27-40% of the number of papillomas on untreated mice; or, differently expressed, papilloma formation was reduced by 60-73%.
In this assay, tumors are initiated in mice by applying the carcinogen DMBA to the skin of mice and subsequently applying the promoter TPA. The method is that of Verma et al., Cancer Research, Vol. 39, pages 419-425, 1979.

mammary carcinogenesis = conditions: rats; Moon et al.; cited from earlier work
[5] = Roberts and Frolik, Roberts et al.; cited from earlier work

Row | SMILES | EC50 [2] [nM] | EC50 [3] [nM] | Ornithine Decarboxylase Activity, Average % of Control Group (ornithine decarboxylase) | EC50 [4] [nM] | other results
1 | CC1=C(/C=C/C(C)=C/C=C/C(C)=C\C(=O)O)C(C)(C)CCC1 [13-cis-retinoic acid] | – | – | – | – | Prophylactic effect on development of pre-neoplastic and malignant epithelial lesions [1]: exert a prophylactic effect; Induction of differentiation of certain neoplastic cells to terminally differentiated cells (certain neoplastic cells): highly active inducers of differentiation
2 | CC1=C(/C=C/C(C)=C/C=C/C(C)=C/C(=O)O)C(C)(C)CC(Cc2ccccc2)C1=O (centres unmarked) [Example 21] | 0.8 | 11 | 42 % of Control Group | – | –
3 | CCNC(=O)\C=C(C)/C=C/C=C(C)/C=C/C1=C(C)CCCC1(C)C [13-Cis-N-ethylretinamide] | – | – | – | 0.3 | –
4 | CC1=C(/C=C/C(C)=C/C=C/C(C)=C/C(=O)NCCO)C(C)(C)CCC1 [All-trans-N-(2-hydroxyethyl)-retinamide] | – | – | – | 0.1 | –
5 | C#CCC1CC(C)(C)C(/C=C/C(C)=C/C=C/C(C)=C/C(=O)O)=C(C)C1=O (centres unmarked) [Example 20] | 0.6 | 0.2 | 47 % of Control Group | – | Activity in hamster-trachea assay compared with the retinamides of Table II [3]: comparable; Average Number of Skin Papillomas/Mouse as % of No. of Papillomas/Mouse in the DMBA-TPA Control Group of Mice (skin papillomas): 64%
6 | CC1=C(/C=C/C(C)=C/C=C/C(C)=C\C(=O)NCCO)C(C)(C)CCC1 [13-Cis-N-(2-hydroxyethyl)-retinamide] | – | – | – | 0.3 | –
7 | COC(=O)/C=C(C)/C=C/C=C(C)/C=C/C1=C(C)C(=O)C(Cc2ccccc2)CC1(C)C (centres unmarked) [Example 9, Methyl 4-Oxo-3-(phenylmethyl)retinoate] | – | 11 | 77 % of Control Group | – | –
8 | CCNC(=O)/C=C(C)/C=C/C=C(C)/C=C/C1=C(C)CCCC1(C)C [All-trans-N-ethylretinamide] | – | – | – | 1 | –
9 | CC1=C(/C=C/C(C)=C/C=C/C(C)=C\C(=O)Nc2ccc(O)cc2)C(C)(C)CCC1 [13-Cis-N-(4-hydroxyphenyl)-retinamide] | – | – | – | > 1 | Suppression of mammary carcinogenesis (mammary carcinogenesis): suppress mammary carcinogenesis in rats
10 | CC1=C(/C=C/C(C)=C/C=C/C(C)=C/C(=O)Nc2ccc(O)cc2)C(C)(C)CCC1 [All-trans-N-(4-hydroxyphenyl)-retinamide] | – | – | – | 0.3 | Suppression of mammary carcinogenesis (mammary carcinogenesis): suppress mammary carcinogenesis in rats
11 | COC(=O)/C=C(C)/C=C/C=C(C)/C=C/C1=C(C)C(=O)C(C)(C)CC1(C)C [Example 11, Methyl 3,3-Dimethyl-4-oxoretinoate] | 0.9 | 0.3 | 22 % of Control Group | – | Activity in hamster-trachea assay compared with the retinamides of Table II [3]: comparable; ODC activity as % of the ODC activity in the control mice, summary range (ornithine decarboxylase): 22-47 % of the ODC activity in the control mice; Average Number of Skin Papillomas/Mouse as % of No. of Papillomas/Mouse in the DMBA-TPA Control Group of Mice (skin papillomas): 27%; Reduction of papilloma formation, summary range (skin papillomas): 60-73%; Papilloma formation as % of papilloma formation in untreated control mice, summary range (skin papillomas): 27-40%
12 | CC1=C(/C=C/C(C)=C/C=C/C(C)=C/C(=O)O)C(C)(C)CCC1=O [all-trans-4-oxoretinoic acid] | – | – | – | – | Metabolite identity [5]: one of the metabolites of all-trans-retinoic acid
13 | CC1=C(/C=C/C(C)=C/C=C/C(C)=C/C(=O)O)C(C)(C)CC(C)C1=O (centres unmarked) [Example 17, 3-Methyl-4-oxoretinoic Acid] | 0.9 | 2 | 33 % of Control Group | – | ODC activity as % of the ODC activity in the control mice, summary range (ornithine decarboxylase): 22-47 % of the ODC activity in the control mice; Average Number of Skin Papillomas/Mouse as % of No. of Papillomas/Mouse in the DMBA-TPA Control Group of Mice (skin papillomas): 32%; Reduction of papilloma formation, summary range (skin papillomas): 60-73%; Papilloma formation as % of papilloma formation in untreated control mice, summary range (skin papillomas): 27-40%
14 | CC1=C(/C=C/C(C)=C/C=C/C(C)=C/C(=O)O)C(C)(C)CCC1 [all-trans-retinoic acid] | – | – | – | – | Prophylactic effect on development of pre-neoplastic and malignant epithelial lesions [1]: exert a prophylactic effect; Induction of differentiation of certain neoplastic cells to terminally differentiated cells (certain neoplastic cells): highly active inducers of differentiation
15 | COC(=O)/C=C(C)/C=C/C=C(C)/C=C/C1=C(C)C(=O)C(C)CC1(C)C (centres unmarked) [Example 2, Methyl 3-Methyl-4-oxoretinoate] | 2 | 4 | 33 % of Control Group | – | Average Number of Skin Papillomas/Mouse as % of No. of Papillomas/Mouse in the DMBA-TPA Control Group of Mice (skin papillomas): 27%; Reduction of papilloma formation, summary range (skin papillomas): 60-73%; Papilloma formation as % of papilloma formation in untreated control mice, summary range (skin papillomas): 27-40%
